Read-outs that look alike come from different tables or passages of the source.
Key:
[1] = Oral administration to fasted beagles with L-cysteine or L-aspartic acid, plasma drug disposition parameters (Experimental Example 4); format: in vivo; conditions: for AUC(0-t) at 8 h / Cmax / Tmax: dog, plasma, po, 3 mg/kg; for AUC(0-t) at 8 h: read-out: AUC (0-8 hr) mean ± SE; for Cmax: read-out: Cmax mean ± SE; for Tmax: read-out: Tmax mean ± SE
Method: A similar mixture to that described above was prepared except that L-cysteine was replaced by 350 mg of L-aspartic acid.
(§1) (a) Administration and collection of blood sample
An internal standard substance (IS 20 ng in 200 μl) was added to 1 ml of blood plasma. After dilution with 2 ml of water, the aqueous solution was passed through a BONDELUTE (trade name) C18 column previously washed with 3 ml of methanol containing 0.1% of acetic acid and 9 ml of water. After further washing with 9 ml of water and 2 ml of acetonitrile, the sample was eluted with 1.2 ml of methanol containing 0.1% of perchloric acid. The solvent was distilled off and the residue was dissolved in 200 μl of a 0.1% acetic acid aqueous solution/methanol mixture (2/1, V/V). 50 to 100 μl thereof was injected into an instrument for HPLC for determination. Separately, blood plasma containing known amounts of compound (IX) and IS was treated to prepare an addition/recovery calibration curve. The concentration was determined from the ratio of the peak height of compound (IX) to that of IS. The detection limit in this method was 0.05 ng/ml of plasma.
(§2) (c) HPLC determination conditions
(§3) A HPLC pump used was CCPD mfd. by Toyo Soda Mfg. Co., Ltd. 1.35 ml/min of an aqueous solution containing 0.1% of perchloric acid and 0.01% of a disodium ethylenediaminetetraacetate/methanol mixture 80:9 (V/V) was introduced therein. The sample was injected into the instrument with a WISP 710B auto-sampler mfd. by Waters at intervals of about 50 minutes. A reversed phase ODS-120 T column (4.6×250 mm) with a prefilter was used as the analysis column. The detector used was an ECD-100 electrochemical detector mfd. by Acome. The voltage was +650 mV (against a SEC electrode).

[2] = Oral administration to fasted beagles with ascorbic, citric or tartaric acid, plasma drug disposition parameters (Experimental Example 3); format: in vivo; conditions: for AUC(0-t) at 6 h / Cmax / Tmax: dog, plasma, po, 3 mg/kg, n=4; for AUC(0-t) at 6 h: read-out: AUC (0-6 hr) mean ± SE; for Cmax: read-out: Cmax mean ± SE; for Tmax: read-out: Tmax mean ± SE (converted)
Excerpt: Compound (IX) and ascorbic acid, citric acid or tartaric acid were weighed, pulverized thoroughly and mixed together in an agate mortar. The mixture was divided into portions and filled in gelatin capsules (No. 1 or No. 00) and the gap in each capsule was further filled with lactose to obtain a sample. Separately, compound (IX) was formulated into a powder of five-fold dilution with lactose and filled in capsules in a similar manner to that described above to obtain a control sample.
The dose of compound (IX) was adjusted to 3 mg/kg in all the cases, while that of ascorbic acid was adjusted to three levels, i.e. 3 mg/kg, 9 mg/kg and 15 mg/kg and that of each of citric acid and tartaric acid was adjusted to one level of 15 mg/kg.
as §1
The capsule of compound (IX) was given to each of 4 beagles (average body weight 9.53 kg) together with 30 ml of water by oral administration after fasting overnight (14 hours). The experiment was conducted by the crossover administration method while the beagles were kept fasting.
An internal standard substance (IS 50 ng in 50 μl) was added to 1 ml of blood plasma. After extraction with 5 ml of ethyl acetate, the solvent was distilled off. 100 μl of a citrate buffer solution (pH 3.5) was added thereto to form a solution again, which was washed with 1 ml of diethyl ether. The lower layer was separated and 50 μl of methanol was added thereto. 50 to 100 μl thereof was injected into an instrument for high-performance liquid chromatography (HPLC) for determination. Separately, blood plasma containing known amounts of compound (IX) and IS was treated to prepare an addition/recovery calibration curve. The concentration was determined from the ratio of the peak height of compound (IX) to that of IS. The detection limit in this method was 0.2 ng/ml of plasma.
as §2
as §3, with “1.5” for “1.35”, “of” for “of an aqueous solution containing 0.1% of perchloric acid and 0.01% of”, “citrate buffer (pH 3.5)/methanol” for “disodium ethylenediaminetetraacetate/methanol”, “80:1” for “80:9”, “Nucleosil (trade name) 7C6H5” for “ODS-120 T”
The citrate buffer solution (pH 3.5) was prepared by dissolving 26.25 g of citric acid, 16.58 g of anhydrous sodium acetate, 12.25 g of sodium hydroxide, 0.8375 g of disodium ethylenediaminetetraacetate, 93.8 ml of glacial acetic acid and 35.9 ml of 60% perchloric acid in 2500 ml of distilled water.
The AUC value in the period of 0 to 6 hours was determined from each of these curves. The results are given in FIG. 6, which is a bar graph for the comparison of the AUC values of the respective samples.

[3] = 3 mg/kg oral + L-aspartic acid 15 mg/kg, n=2
[4] = 3 mg/kg oral + L-cysteine 15 mg/kg, n=2
[5] = 3 mg/kg oral, none (control), n=4
[6] = 3 mg/kg oral + ascorbic acid 3 mg/kg (1:1)
[7] = 3 mg/kg oral + ascorbic acid 9 mg/kg (1:3)
[8] = 3 mg/kg oral + ascorbic acid 15 mg/kg (1:5)
[9] = 3 mg/kg oral + citric acid 15 mg/kg (1:5)
[10] = 3 mg/kg oral + tartaric acid 15 mg/kg (1:5)
[11] = 3 mg/kg oral, no organic acid (control)

Oc1ccc([C@@H]2CNC[C@H]2c2cccc(O)c2Cl)cc1O (relative stereo) [compound (IX)]
Addition effect (AUC ratio) ([1]; 3 mg/kg oral + L-aspartic acid 15 mg/kg): 2.46
Addition effect (AUC ratio) ([1]; 3 mg/kg oral + L-cysteine 15 mg/kg): 1.59
Addition effect (AUC ratio) ([1]; 3 mg/kg oral, none (control)): 1.00
effect relative to that obtained by adding tartaric acid ([1]; L-cysteine and L-aspartic acid): ~2.7 times
AUC(0-t) at 8 h [1, 3]: 37.5 ± 0.2 ng·h/mL
Cmax [1, 3]: 48.2 ± 2.5 ng/mL
Tmax [1, 3]: 45 ± 15 min
AUC(0-t) at 8 h [1, 4]: 24.4 ± 1 ng·h/mL
Cmax [1, 4]: 15.3 ± 2.7 ng/mL
Tmax [1, 4]: 70.2 ± 50.4 min
Cmax [1, 5]: 21 ± 5.3 ng/mL
Tmax [1, 5]: 43.8 ± 16.8 min
increase of AUC value ([1]; with L-aspartic acid): 2.46 -fold
increase of AUC value ([1]; with L-cysteine): 1.59 -fold
Addition effect ratio ([2]; 3 mg/kg oral + ascorbic acid 3 mg/kg (1:1), AUC ratio to no additive): 1.9
Addition effect ratio ([2]; 3 mg/kg oral + ascorbic acid 9 mg/kg (1:3), AUC ratio to no additive): 4.8
increase of AUC value vs no added acid ([2]; 3 mg/kg oral + ascorbic acid 15 mg/kg): 7 -fold
Addition effect ratio ([2]; 3 mg/kg oral + ascorbic acid 15 mg/kg (1:5), AUC ratio to no additive): 7.0
Addition effect ratio ([2]; 3 mg/kg oral + citric acid 15 mg/kg (1:5), AUC ratio to no additive): 3.3
Addition effect ratio ([2]; 3 mg/kg oral + tartaric acid 15 mg/kg (1:5), AUC ratio to no additive): 2.7
Addition effect ratio ([2]; 3 mg/kg oral, no organic acid, base): 1.0
AUC(0-t) at 6 h [2, 6]: 28.4 ± 6.5 ng·h/mL
Cmax [2, 6]: 33.8 ± 13.2 ng/mL
Tmax [2, 6]: 34 min
AUC(0-t) at 6 h [2, 7]: 72.6 ± 18.5 ng·h/mL
Cmax [2, 7]: 187 ± 91.7 ng/mL
Tmax [2, 7]: 43 min
AUC(0-t) at 6 h [2, 8]: 107 ± 14.6 ng·h/mL
Cmax [2, 8]: 139 ± 20.9 ng/mL
Tmax [2, 8]: 55 min
AUC(0-t) at 6 h [2, 9]: 50.7 ± 16.5 ng·h/mL
Cmax [2, 9]: 87.4 ± 30.2 ng/mL
Tmax [2, 9]: 29 min
AUC(0-t) at 6 h [2, 10]: 40.4 ± 7.8 ng·h/mL
Cmax [2, 10]: 61.5 ± 26.3 ng/mL
Tmax [2, 10]: 45 min
AUC(0-t) at 6 h [2, 11]: 15.2 ± 2.8 ng·h/mL
Cmax [2, 11]: 21 ± 5.3 ng/mL
Tmax [2, 11]: 44 min
increase of AUC value vs no added acid ([2]; with citric acid): 3.3 -fold
increase of AUC value vs no added acid ([2]; with tartaric acid): 2.7 -fold

From US5292521A, “Solid oral preparation containing a pyrrolidine derivative with a catechol group” (priority 1990, dated 1994)
